# Laboratory results taken from article PMC11721672, “Design, Structure–Activity Relationships, and Computational Modeling Studies of a Series of α-Helix Biased, Ultra-Short Glucagon-like Peptide-1 Receptor Agonists” (Molecules, 2024).
# Read-outs that look alike come from different tables or passages of the source. Square brackets hold non-standard residues; d marks the D form. Peptide text beside a SMILES is read from it. Bip = N[C@@H](Cc1ccc(-c2ccccc2)cc1)C(=O)O; αMePhe(2-F) = C[C@](N)(Cc1ccccc1F)C(=O)O; Phe(2-F) = N[C@@H](Cc1ccccc1F)C(=O)O; Aib = CC(C)(N)C(=O)O
# Biological target: T1, hGLP1 receptor (Homo sapiens, UniProt P43220)
# T1 construct: expressed in transfected cells; host or cells: HEK (human embryonic kidney) cells co-expressing hGLP1 receptor and CRE-Luciferase
# T1 sequence (P43220 24-463): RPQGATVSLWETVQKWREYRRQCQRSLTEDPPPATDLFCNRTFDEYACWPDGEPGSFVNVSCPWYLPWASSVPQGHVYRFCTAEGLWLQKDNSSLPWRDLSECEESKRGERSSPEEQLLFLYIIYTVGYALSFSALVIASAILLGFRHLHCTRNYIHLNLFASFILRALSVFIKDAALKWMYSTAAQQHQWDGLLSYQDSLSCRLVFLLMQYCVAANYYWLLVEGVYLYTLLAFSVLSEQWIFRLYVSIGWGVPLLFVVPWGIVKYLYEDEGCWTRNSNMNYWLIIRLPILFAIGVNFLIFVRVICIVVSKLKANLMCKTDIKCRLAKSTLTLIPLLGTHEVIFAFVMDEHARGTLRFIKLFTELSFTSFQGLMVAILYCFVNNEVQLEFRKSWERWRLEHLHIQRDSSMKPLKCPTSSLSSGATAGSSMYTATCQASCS
# Assay: GLP-1 receptor agonism assay (HTRF cAMP, HEK cells co-expressing hGLP1 receptor and CRE-Luciferase)
# Type: cell-based
# Conditions: for Emax: HEK293, Table 6 potency profile; for dpEC50 (contribution of Cα-methylation): dpEC50 = pEC50 (Aib) − pEC50 (Ala) − 0.97, Aib peptide versus the Ala peptide of the same line; for decreased potency by Aib substitution: Aib-scanning, versus parent analog RXL-101
# Protocol: Human embryonic kidney cells (HEK) co-expressing the hGLP1 receptor and CRE-Luciferase construct were used to determine agonist potency in this assay. The cells were thawed briefly at 37 °C, transferred to a sterile tube, and re-suspended in complete media at 37 °C. Cells were centrifuged at 1000 rpm for 5 min and collected; the cells were then re-suspended in an assay buffer consisting of Dulbecco’s phosphate-buffered saline (DPBS, GIBCO) with 500 μM of the phosphodiesterase inhibitor 3-isobutyl-1-methylxanthine (IBMX). The assay medium had 0% serum albumin, as specified in Table 1, Table 2, Table 3 and Table 4. The optimal cell density was determined to be 1000 cells/well. Cells were added to wells in 384-well plates containing appropriate pre-prepared dilutions of compounds (test peptides or reference compound exendin-4), sealed, and incubated with CO2 for 30 min. Test peptide solutions were diluted from 10 mM stock solutions to be used in two separate runs (performed in triplicate) from a maximal concentration of 1.0 μM, with 11 concentrations tested for each peptide using serial 1:3 dilution from this maximal concentration. […] The agonist assay was a homogeneous time-resolved fluorescence (HTRF) assay (Cisbio). Following incubation of the cells for 30 min with test or reference peptides, 5 μL of the cAMP acceptor cAMP-d2, prepared previously as a working solution from frozen stock (1:20 dilution), was added to each well of the assay plate along with 5 μL of anti-cAMP antibody-cryptate working solution (diluted 1:20 from frozen stock). The wells were incubated for 1 h at room temperature, and fluorescence was then read at 665 and 615 nm with an Envision reader with a TRF laser. Data were saved and analyzed using Prism software (GraphPad). Concentration–response analysis was performed using 4-parameter logistic fits of the resulting data, and EC50 values were obtained for each test and reference compound.
# [1] = Table 1, Phe6 modifications, 0% HSA, average of two independent experiments in triplicate (RXL-3039 tested once), read-out: cAMP EC50
# [2] = Table 3, Aib-scanning, 0% HSA, >1000 nM = out of range, read-out: cAMP EC50
# [3] = Table 2, Ala-scanning, 0% HSA, >1000 nM = out of range, read-out: cAMP EC50
Compound,Emax [%],EC50 [1] [nM],also measured
"Cc1ccccc1C[C@H](NC(=O)[C@@H](NC(=O)CNC(=O)[C@H](CCC(=O)O)NC(=O)C(C)(C)NC(=O)[C@@H](N)Cc1c[nH]cn1)[C@@H](C)O)C(=O)N[C@H](C(=O)N[C@@H](CO)C(=O)N[C@@H](CC(=O)O)C(=O)N[C@@H](Cc1ccc(-c2ccccc2)cc1)C(=O)N[C@@H](Cc1ccc(-c2ccccc2)cc1)C(N)=O)[C@@H](C)O [RXL-3013, His-Aib-Glu-Gly-Thr-Phe(2-CH3)-Thr-Ser-Asp-Bip-Bip-NH2]",98.6,2.1,
"C[C@@H](O)[C@H](NC(=O)[C@](C)(Cc1ccccc1F)NC(=O)C(C)(C)NC(=O)CNC(=O)[C@H](CCC(=O)O)NC(=O)C(C)(C)NC(=O)[C@@H](N)Cc1c[nH]cn1)C(=O)N[C@@H](CO)C(=O)N[C@@H](CC(=O)O)C(=O)N[C@@H](Cc1ccc(-c2ccccc2)cc1)C(=O)N[C@@H](Cc1ccc(-c2ccccc2)cc1)C(N)=O [RXL-3033, His-Aib-Glu-Gly-Aib-α-Me-Phe(2-F)-Thr-Ser-Asp-Bip-Bip-NH2] (H-H[Aib]EG[Aib][αMePhe(2-F)]TSD[Bip][Bip]-NH2)",120,,dpEC50 (contribution of Cα-methylation) (0% HSA): −1.00
"C[C@@H](O)[C@H](NC(=O)CNC(=O)[C@H](CCC(=O)O)NC(=O)C(C)(C)NC(=O)[C@@H](N)Cc1c[nH]cn1)C(=O)N[C@@](C)(Cc1ccccc1F)C(=O)N[C@H](C(=O)NC(C)(C)C(=O)N[C@@H](CC(=O)O)C(=O)N[C@@H](Cc1ccc(-c2ccccc2)cc1)C(=O)N[C@@H](Cc1ccc(-c2ccccc2)cc1)C(N)=O)[C@@H](C)O [RXL-3035, His-Aib-Glu-Gly-Thr-α-Me-Phe(2-F)-Thr-Aib-Asp-Bip-Bip-NH2] (H-H[Aib]EGT[αMePhe(2-F)]T[Aib]D[Bip][Bip]-NH2)",79.1,,decreased potency by Aib substitution: ≥ 100 fold; dpEC50 (contribution of Cα-methylation) (0% HSA): −2.80
"C[C@@H](O)[C@H](NC(=O)CNC(=O)[C@H](CCC(=O)O)NC(=O)C(C)(C)NC(=O)[C@@H](N)Cc1c[nH]cn1)C(=O)N[C@@H](CCc1ccccc1)C(=O)N[C@H](C(=O)N[C@@H](CO)C(=O)N[C@@H](CC(=O)O)C(=O)N[C@@H](Cc1ccc(-c2ccccc2)cc1)C(=O)N[C@@H](Cc1ccc(-c2ccccc2)cc1)C(N)=O)[C@@H](C)O [RXL-3019, His-Aib-Glu-Gly-Thr-hPhe-Thr-Ser-Asp-Bip-Bip-NH2]",110,16,
"C[C@@H](O)[C@H](NC(=O)CNC(=O)[C@H](CCC(=O)O)NC(=O)C(C)(C)NC(=O)[C@@H](N)Cc1c[nH]cn1)C(=O)N[C@@H](Cc1ccc(-c2ccccc2)cc1)C(=O)N[C@H](C(=O)N[C@@H](CO)C(=O)N[C@@H](CC(=O)O)C(=O)N[C@@H](Cc1ccc(-c2ccccc2)cc1)C(=O)N[C@@H](Cc1ccc(-c2ccccc2)cc1)C(N)=O)[C@@H](C)O [RXL-3024, His-Aib-Glu-Gly-Thr-Bip-Thr-Ser-Asp-Bip-Bip-NH2] (H-H[Aib]EGT[Bip]TSD[Bip][Bip]-NH2)",102,10.8,
"C[C@@H](O)[C@H](NC(=O)CNC(=O)[C@H](CCC(=O)O)NC(=O)C(C)(C)NC(=O)[C@@H](N)Cc1c[nH]cn1)C(=O)NC(C)(C)C(=O)N[C@H](C(=O)N[C@@H](CO)C(=O)N[C@@H](CC(=O)O)C(=O)N[C@@H](Cc1ccc(-c2ccccc2)cc1)C(=O)N[C@@H](Cc1ccc(-c2ccccc2)cc1)C(N)=O)[C@@H](C)O [RXL-3028, His-Aib-Glu-Gly-Thr-Aib-Thr-Ser-Asp-Bip-Bip-NH2] (H-H[Aib]EGT[Aib]TSD[Bip][Bip]-NH2)",76.1,,"rescue of potency by Aib versus Ala substitution (Aib analog versus Ala analog at the same position): more than 10 fold; decreased potency by Aib substitution: ≥ 100 fold; EC50 [2]: 161 nM; EC50 (Table 4, Aib-scan peptides, 0% HSA, read-out: pEC50 (converted)): 105 nM; dpEC50 (contribution of Cα-methylation) (0% HSA): 0.46"
"C[C@@H](O)[C@H](NC(=O)CNC(=O)[C@H](CCC(=O)O)NC(=O)C(C)(C)NC(=O)[C@@H](N)Cc1c[nH]cn1)C(=O)N[C@@H](Cc1ccccc1Br)C(=O)N[C@H](C(=O)N[C@@H](CO)C(=O)N[C@@H](CC(=O)O)C(=O)N[C@@H](Cc1ccc(-c2ccccc2)cc1)C(=O)N[C@@H](Cc1ccc(-c2ccccc2)cc1)C(N)=O)[C@@H](C)O [RXL-3010, His-Aib-Glu-Gly-Thr-Phe(2-Br)-Thr-Ser-Asp-Bip-Bip-NH2]",121,3.85,
"C[C@@H](O)[C@H](NC(=O)CNC(=O)[C@H](CCC(=O)O)NC(=O)C(C)(C)NC(=O)[C@@H](N)Cc1c[nH]cn1)C(=O)N[C@@H](Cc1ccc(O)cc1)C(=O)N[C@H](C(=O)N[C@@H](CO)C(=O)N[C@@H](CC(=O)O)C(=O)N[C@@H](Cc1ccc(-c2ccccc2)cc1)C(=O)N[C@@H](Cc1ccc(-c2ccccc2)cc1)C(N)=O)[C@@H](C)O [RXL-3021, His-Aib-Glu-Gly-Thr-Tyr-Thr-Ser-Asp-Bip-Bip-NH2] (H-H[Aib]EGTYTSD[Bip][Bip]-NH2)",100,3,
"C[C@@H](O)[C@H](NC(=O)CNC(=O)[C@H](CCC(=O)O)NC(=O)C(C)(C)NC(=O)[C@@H](N)Cc1c[nH]cn1)C(=O)N[C@@H](Cc1c[nH]c2ccccc12)C(=O)N[C@H](C(=O)N[C@@H](CO)C(=O)N[C@@H](CC(=O)O)C(=O)N[C@@H](Cc1ccc(-c2ccccc2)cc1)C(=O)N[C@@H](Cc1ccc(-c2ccccc2)cc1)C(N)=O)[C@@H](C)O [RXL-3023, His-Aib-Glu-Gly-Thr-Trp-Thr-Ser-Asp-Bip-Bip-NH2] (H-H[Aib]EGTWTSD[Bip][Bip]-NH2)",106,13.8,
"C[C@H](NC(=O)[C@H](CCC(=O)O)NC(=O)C(C)(C)NC(=O)[C@@H](N)Cc1c[nH]cn1)C(=O)N[C@H](C(=O)N[C@@H](Cc1ccccc1F)C(=O)N[C@H](C(=O)N[C@@H](CO)C(=O)N[C@@H](CC(=O)O)C(=O)N[C@@H](Cc1ccc(-c2ccccc2)cc1)C(=O)N[C@@H](Cc1ccc(-c2ccccc2)cc1)C(N)=O)[C@@H](C)O)[C@@H](C)O [RXL-3037, His-Aib-Glu-Ala-Thr-Phe(2-F)-Thr-Ser-Asp-Bip-Bip-NH2] (H-H[Aib]EAT[Phe(2-F)]TSD[Bip][Bip]-NH2)",73.8,,"EC50 [3]: 210 nM; pEC50 (Table 4, Ala-scan peptides, 0% HSA): 6.46; decreased potency (Aib/Ala comparison) (versus respective parent analog): 2000 fold"
"C[C@H](NC(=O)CNC(=O)[C@H](CCC(=O)O)NC(=O)C(C)(C)NC(=O)[C@@H](N)Cc1c[nH]cn1)C(=O)N[C@@H](Cc1ccccc1F)C(=O)N[C@H](C(=O)N[C@@H](CO)C(=O)N[C@@H](CC(=O)O)C(=O)N[C@@H](Cc1ccc(-c2ccccc2)cc1)C(=O)N[C@@H](Cc1ccc(-c2ccccc2)cc1)C(N)=O)[C@@H](C)O [RXL-3004, His-Aib-Glu-Gly-Ala-Phe(2-F)-Thr-Ser-Asp-Bip-Bip-NH2] (H-H[Aib]EGA[Phe(2-F)]TSD[Bip][Bip]-NH2)",108,,"EC50 [3]: 7.7 nM; EC50 (Table 4, Ala-scan peptides, 0% HSA, read-out: pEC50 (converted)): 6.92 nM"
"C[C@@H](O)[C@H](NC(=O)CNC(=O)[C@H](CCC(=O)O)NC(=O)C(C)(C)NC(=O)[C@@H](N)Cc1c[nH]cn1)C(=O)N[C@H](Cc1ccccc1)C(=O)N[C@H](C(=O)N[C@@H](CO)C(=O)N[C@@H](CC(=O)O)C(=O)N[C@@H](Cc1ccc(-c2ccccc2)cc1)C(=O)N[C@@H](Cc1ccc(-c2ccccc2)cc1)C(N)=O)[C@@H](C)O [RXL-3022, His-Aib-Glu-Gly-Thr-D-Phe-Thr-Ser-Asp-Bip-Bip-NH2]",101,23.2,
"C[C@@H](O)[C@H](NC(=O)CNC(=O)[C@H](CCC(=O)O)NC(=O)C(C)(C)NC(=O)[C@@H](N)Cc1c[nH]cn1)C(=O)N[C@@H](Cc1ccccc1C(F)(F)F)C(=O)N[C@H](C(=O)N[C@@H](CO)C(=O)N[C@@H](CC(=O)O)C(=O)N[C@@H](Cc1ccc(-c2ccccc2)cc1)C(=O)N[C@@H](Cc1ccc(-c2ccccc2)cc1)C(N)=O)[C@@H](C)O [RXL-3012, His-Aib-Glu-Gly-Thr-Phe(2-CF3)-Thr-Ser-Asp-Bip-Bip-NH2]",99.3,13.9,
"C[C@@H](O)[C@H](NC(=O)CNC(=O)[C@H](CCC(=O)O)NC(=O)C(C)(C)NC(=O)[C@@H](N)Cc1c[nH]cn1)C(=O)N[C@@H](Cc1ccccc1)C(=O)N[C@H](C(=O)N[C@@H](CO)C(=O)N[C@@H](CC(=O)O)C(=O)N[C@@H](Cc1ccc(-c2ccccc2)cc1)C(=O)N[C@@H](Cc1ccc(-c2ccccc2)cc1)C(N)=O)[C@@H](C)O [RXL-100, His-Aib-Glu-Gly-Thr-Phe-Thr-Ser-Asp-Bip-Bip-NH2]",110,0.5,EC50 [3]: 0.5 nM; EC50 [2]: 0.5 nM
